PubChem BioAssay AID330 (DTP/NCI, 2004)
Where “and” joins values, the source holds several entries; their conditions need not be identical. Equal values may be shown once. Toxic doses and inconclusive results are not listed. Peptide text beside a SMILES is read from it. * marks the point of attachment. Cbz = O=C(OCc1ccccc1)*

Tested on: P388 leukemia ip, CD2F1 mice, survival T/C
Assay: NCI In Vivo Anticancer Drug Screen. Data for tumor model P388 Leukemia (intraperitoneal) in CD2F1 (CDF1) mice
Settings: endpoint: median survival time, higher = longer survival
Outline: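 Mice carrying the transplanted tumor received test compound or vehicle. Survival was recorded in each group, and the value is the treated-group measurement divided by that of the vehicle-treated control group.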

[1] = dose: 100.0 mg/kg/injection, schedule: Q01DX001 (ip), vehicle: Klucel (hydroxypropylcellulose) (HPC)
[2] = dose: 200.0 mg/kg/injection, schedule: Q01DX001 (ip), vehicle: Klucel (hydroxypropylcellulose) (HPC)
[3] = dose: 400.0 mg/kg/injection, schedule: Q01DX001 (ip), vehicle: Klucel (hydroxypropylcellulose) (HPC)
[4] = dose: 12.5 mg/kg/injection, schedule: Q01DX009 (ip), vehicle: saline with Tween-80
[5] = dose: 25.0 mg/kg/injection, schedule: Q01DX009 (ip), vehicle: saline with Tween-80
[6] = dose: 50.0 mg/kg/injection, schedule: Q01DX009 (ip), vehicle: saline with Tween-80
[7] = dose: 100.0 mg/kg/injection, schedule: Q01DX009 (ip), vehicle: saline with Tween-80
[8] = dose: 6.25 mg/kg/injection, schedule: Q01DX009 (ip), vehicle: saline with Tween-80
[9] = dose: 200.0 mg/kg/injection, schedule: Q01DX009 (ip), vehicle: saline with Tween-80
[10] = dose: 12.5 mg/kg/injection, schedule: Q01DX009 (ip), vehicle: saline
[11] = dose: 25.0 mg/kg/injection, schedule: Q01DX009 (ip), vehicle: saline
[12] = dose: 50.0 mg/kg/injection, schedule: Q01DX009 (ip), vehicle: saline
[13] = dose: 50.0 mg/kg/injection, schedule: Q04DX003 (ip), vehicle: saline with Tween-80
[14] = dose: 100.0 mg/kg/injection, schedule: Q01DX009 (ip), vehicle: saline
[15] = dose: 100.0 mg/kg/injection, schedule: Q04DX003 (ip), vehicle: saline with Tween-80
[16] = dose: 200.0 mg/kg/injection, schedule: Q04DX003 (ip), vehicle: saline with Tween-80
[17] = dose: 60.0 mg/kg/injection, schedule: Q01DX005 (ip), vehicle: saline with Tween-80
[18] = dose: 120.0 mg/kg/injection, schedule: Q01DX005 (ip), vehicle: saline with Tween-80
[19] = dose: 50.0 mg/kg/injection, schedule: Q01DX005 (ip), vehicle: Klucel (hydroxypropylcellulose) (HPC)
[20] = dose: 100.0 mg/kg/injection, schedule: Q01DX005 (ip), vehicle: Klucel (hydroxypropylcellulose) (HPC)
[21] = dose: 200.0 mg/kg/injection, schedule: Q01DX005 (ip), vehicle: Klucel (hydroxypropylcellulose) (HPC)

C[n+]1c(-c2cccc(OCCCCCCCCCCCCCCCCOc3cccc(-c4c5cc(N)ccc5c5ccc(N)cc5[n+]4C)c3)c2)c2cc(N)ccc2c2ccc(N)cc21
T/C (dose: 0.39 mg/kg/injection, schedule: Q01DX009 (ip), vehicle: water): 117 % of control | T/C (dose: 0.78 mg/kg/injection, schedule: Q01DX009 (ip), vehicle: water): 117 % of control | T/C (dose: 1.56 mg/kg/injection, schedule: Q01DX009 (ip), vehicle: water): 98 % of control and 119 % of control | T/C (dose: 3.12 mg/kg/injection, schedule: Q01DX009 (ip), vehicle: water): 113 % of control | T/C (dose: 6.25 mg/kg/injection, schedule: Q01DX009 (ip), vehicle: water): 179 % of control

O=C(O)C(=O)O.O=C(O)C(=O)O.[Co+2].[NH-]CCC[NH-]
T/C (dose: 12.5 mg/kg/injection, schedule: Q04DX002 (ip), vehicle: saline): 99 % of control

Cc1ccc(/C2=C(\c3ccc(C)cc3)N(c3ccc(C)cc3)CCCCN2c2ccc(C)cc2)cc1
T/C [1]: 92 % of control | T/C [2]: 87 % of control | T/C [3]: 92 % of control

OC(COc1cccc(C(F)(F)F)c1)CN1CCN(c2ccc(F)cc2)CC1 (configuration not stated)
T/C [4]: 100 % of control | T/C (dose: 25.0 mg/kg/injection, schedule: Q01DX009 (ip), vehicle: distilled water + Tween-80): 106 % of control | T/C [5]: 106 % of control | T/C (dose: 50.0 mg/kg/injection, schedule: Q01DX009 (ip), vehicle: distilled water + Tween-80): 108 % of control | T/C [6]: 124 % of control

CSC1(C)C(=O)Nc2cc([N+](=O)[O-])ccc21 (configuration not stated)
T/C [5]: 100 % of control | T/C [6]: 99 % of control | T/C [7]: 113 % of control

Cc1cc2c(cc1C)NC1C(=O)C(c3ccccc3Cl)OC1=N2 (configuration not stated)
T/C (dose: 50.0 mg/kg/injection, schedule: Q01DX005 (ip), vehicle: Klucel + Tween-80): 92 % of control | T/C (dose: 100.0 mg/kg/injection, schedule: Q01DX005 (ip), vehicle: Klucel + Tween-80): 94 % of control | T/C (dose: 200.0 mg/kg/injection, schedule: Q01DX005 (ip), vehicle: Klucel + Tween-80): 91 % of control

O=C(Nc1ccc(Br)cn1)c1sc2ccccc2c1Cl
T/C [8]: 99 % of control | T/C [4]: 98 % of control | T/C [5]: 99 % of control | T/C [7]: 92 % of control | T/C [9]: 87 % of control

C=CCOCC1CO1 (configuration not stated)
T/C [10]: 106 % of control | T/C [11]: 97 % of control | T/C [12]: 103 % of control | T/C [13]: 100 % of control | T/C [14]: 100 % of control | T/C [15]: 90 % of control | T/C (dose: 132.0 mg/kg/injection, schedule: Q04DX003 (ip), vehicle: saline with Tween-80): 109 % of control | T/C (dose: 200.0 mg/kg/injection, schedule: Q01DX009 (ip), vehicle: saline): 100 % of control | T/C [16]: 109 % of control | T/C (dose: 300.0 mg/kg/injection, schedule: Q04DX003 (ip), vehicle: saline with Tween-80): 122 % of control

NC(=O)C(Cc1ccccc1)NC(=O)C(Cc1ccccc1)NC(=O)C(Cc1ccccc1)NC(=O)OCc1ccccc1 (stereo not drawn) (Cbz-Phe-Phe-Phe-NH2; configuration not given here)
T/C (dose: 50.0 mg/kg/injection, schedule: Q01DX005 (ip), vehicle: saline with Tween-80): 91 % of control | T/C (dose: 100.0 mg/kg/injection, schedule: Q01DX005 (ip), vehicle: saline with Tween-80): 97 % of control | T/C (dose: 200.0 mg/kg/injection, schedule: Q01DX005 (ip), vehicle: saline with Tween-80): 102 % of control

COC(=O)CCC(=O)C(C#N)c1ccc(Cl)c(Cl)c1 (configuration not stated)
T/C [17]: 101 % of control | T/C [18]: 101 % of control

O=C(CC(C(=O)c1ccccc1)N1CC1)c1ccccc1 (configuration not stated)
T/C [8]: 95 % of control | T/C [4]: 100 % of control | T/C [5]: 100 % of control and 87 % of control | T/C [6]: 116 % of control | T/C [7]: 91 % of control

CN(C)CCn1nc2n(c(=O)c1=O)CC(=O)N(C)c1ccc(Cl)cc1-2
T/C [1]: 100 % of control | T/C [2]: 101 % of control | T/C [3]: 96 % of control

C=Cn1ccnc1
T/C (dose: 6.25 mg/kg/injection, schedule: Q01DX009 (ip), vehicle: saline): 100 % of control | T/C [10]: 103 % of control and 123 % of control | T/C [11]: 103 % of control | T/C [12]: 108 % of control and 113 % of control and 114 % of control | T/C [14]: 91 % of control

Nc1ccc(-c2nnc(-c3ccc(N)cc3)nn2)cc1
T/C (dose: 100.0 mg/kg/injection, schedule: Q01DX001 (ip), vehicle: saline): 94 % of control | T/C (dose: 200.0 mg/kg/injection, schedule: Q01DX001 (ip), vehicle: saline): 92 % of control | T/C (dose: 400.0 mg/kg/injection, schedule: Q01DX001 (ip), vehicle: saline): 95 % of control

CCNc1nncs1
T/C [11]: 113 % of control | T/C [14]: 161 % of control | T/C (dose: 125.0 mg/kg/injection, schedule: Q01DX009 (ip), vehicle: saline): 162 % of control

CC(C)(C)OC(=O)CN1C(=O)CCC1=O
T/C [19]: 99 % of control | T/C [20]: 100 % of control | T/C [21]: 106 % of control

O=S(=O)(c1cccc(C(F)(F)F)c1)N(CCCCN(S(=O)(=O)c1cccc(C(F)(F)F)c1)S(=O)(=O)c1cccc(C(F)(F)F)c1)S(=O)(=O)c1cccc(C(F)(F)F)c1
T/C [17]: 97 % of control | T/C [18]: 93 % of control | T/C (dose: 240.0 mg/kg/injection, schedule: Q01DX005 (ip), vehicle: saline with Tween-80): 90 % of control

COc1cc(/C=N\NC(=O)OC(C)(C)C)cc(OC)c1OC
T/C [13]: 100 % of control | T/C [15]: 91 % of control | T/C [16]: 91 % of control

CC(=O)Nc1sccc1S(=O)(=O)c1ccsc1NC(C)=O
T/C (dose: 100.0 mg/kg/injection, schedule: Q04DX002 (ip), vehicle: saline with Tween-80): 100 % of control | T/C (dose: 200.0 mg/kg/injection, schedule: Q04DX002 (ip), vehicle: saline with Tween-80): 105 % of control | T/C (dose: 400.0 mg/kg/injection, schedule: Q04DX002 (ip), vehicle: saline with Tween-80): 98 % of control

S=C(S)NC1CCN(Cc2ccccc2)CC1
T/C [19]: 107 % of control | T/C [20]: 102 % of control | T/C [21]: 96 % of control

CC12CCC(Cl)CC1=CCC1C2CCC2(C)C1CCCN2CCCl (configuration not stated)
T/C (dose: 6.25 mg/kg/injection, schedule: Q01DX001 (ip), vehicle: saline): 99 % of control | T/C (dose: 12.5 mg/kg/injection, schedule: Q01DX001 (ip), vehicle: saline): 98 % of control | T/C (dose: 25.0 mg/kg/injection, schedule: Q01DX001 (ip), vehicle: saline with Tween-80): 109 % of control | T/C (dose: 25.0 mg/kg/injection, schedule: Q01DX001 (ip), vehicle: saline): 98 % of control and 104 % of control

CCOC(=O)C1=C(C)NC(C)=C(C(=O)OCC)C1c1ccncc1
T/C (dose: 25.0 mg/kg/injection, schedule: Q01DX009 (ip), vehicle: other): 103 % of control | T/C (dose: 50.0 mg/kg/injection, schedule: Q01DX009 (ip), vehicle: other): 89 % of control | T/C (dose: 100.0 mg/kg/injection, schedule: Q01DX009 (ip), vehicle: other): 96 % of control | T/C (dose: 200.0 mg/kg/injection, schedule: Q01DX009 (ip), vehicle: other): 97 % of control | T/C (dose: 400.0 mg/kg/injection, schedule: Q01DX009 (ip), vehicle: other): 95 % of control

CCCCNC=C1C(=O)Nc2ccccc2NC1=O
T/C (dose: 60.0 mg/kg/injection, schedule: Q01DX005 (ip), vehicle: Klucel (hydroxypropylcellulose) (HPC)): 98 % of control | T/C (dose: 120.0 mg/kg/injection, schedule: Q01DX005 (ip), vehicle: Klucel (hydroxypropylcellulose) (HPC)): 92 % of control | T/C (dose: 240.0 mg/kg/injection, schedule: Q01DX005 (ip), vehicle: Klucel (hydroxypropylcellulose) (HPC)): 91 % of control

Cn1c(=O)c2c(nc(Cl)n2Cc2ccc([N+](=O)[O-])cc2)n(C)c1=O
T/C (dose: 100.0 mg/kg/injection, schedule: Q04DX003 (ip), vehicle: saline): 95 % of control | T/C (dose: 200.0 mg/kg/injection, schedule: Q04DX003 (ip), vehicle: saline): 92 % of control | T/C (dose: 400.0 mg/kg/injection, schedule: Q04DX003 (ip), vehicle: saline): 90 % of control

CC(NC(=O)OCc1ccccc1)C(=O)Oc1ccccc1[N+](=O)[O-] (configuration not stated)
T/C [6]: 96 % of control | T/C [7]: 103 % of control | T/C [9]: 105 % of control
